Reference: US20060063209A1, “Engineered antibody fragment that irreversibly binds an antigen” (THE REGENTS OF THE UNIVERSITY OF CALIFORNIA, priority 2004, published 2006)

Assays:
antibody 2D12.5 = test: Competitive immunoassay (ELISA) of metal chelate binding; parameters: species or system mouse
Excerpt: FIG. 9 Relative binding of metal-(S)NBD complexes to antibody 2D12.5. A representative set of competitive binding curves obtained from ELISA experiments. Distance between midpoints is related to difference between dissociation constants. Error bars (representing the standard error of the mean) are shown but are generally smaller than the data points.
FIG. 14 Binding of yttrium chelates with different stereochemistry to antibody 2D12.5, showing that the antibody binds a chelate with the side chain in the R configuration approximately one order of magnitude less well than the S configuration. […] Error bars are smaller than the data symbols. Data were generated by competitive ELISA.
A competitive immunoassay to measure the binding constants of various metal-(S)NBD complexes relative to the original Y^3+ complex (FIG. 9) was developed to assess the metal selectivity of antibody 2D12.5. Briefly, 2D12.5 was incubated at 37° C. in the presence of immobilized HSA-21T-Y-(S)BAD and a soluble metal-(S)NBD competitor (Y-(S)BAD was linked to human serum albumin via 2-iminothiolane). The metal-(S)NBD concentration was varied from μM to pM in order to determine the relative binding affinity of 2D12.5 for each metal chelate in comparison to Y-(S)NBD. […] Other antibodies that bind metal chelates do so with a strong preference for one or possibly two metals (Love, R. et al., Biochemistry 32, 10950-10959 (1993), and Khosraviani, M., et al., (2000) Bioconjugate Chem., 11, 267-277). For example, the (S)NBD chelate of group IIIB ion Sc(III) binds to the antibody with a much lower affinity (<1%) than the strongest binding rare earth complexes, perhaps because Sc(III) has a much smaller ionic radius (Meehan, P. R., et al., Coord. Chem. Rev., 181, 121145, and Shannon, R. D. (1976) Acta Crystallogr., Sect. A: Found. Crystallogr., A32, 751-767).

HLA-DR10 = test: Gel shift assay of permanent attachment of sL1 mutants (western blot); assay type: binding; details: for cross-linking of linker-activated T97C to HLA-DR10: sL1 mutant T97C activated with electrophile, 19 h incubation, western blot
Excerpt: FIG. 25 Gel shift assay of permanent attachment of sL1 to HLA-DR: western blot stained with anti-HLA-DR10β (antibody HL-40). The glycosylated β subunit of HLA-DR10 runs approximately 28-34 kDa, so the cross-linked sL1-HLA-DR10β should run at 57-63 kDa (bands in lanes 5 and 10). Lanes 2-6 are cysteine mutant F96C and lanes 7-11 are cysteine mutant T97C. Lanes 2 and 7 are sL1 mutant only; lanes 3 and 8 are sL1 mutant and HLA-DR10 target; lanes 4 and 9 are sL1 mutant and electrophile (no target); lanes 5 and 10 are the complete experiment: sL1 mutant, electrophile, and target; and lanes 6 and 11 are sL1 mutant with electrophile and recombinant human serum albumin as a negative control. Lnkr: nitrophenyl ester; Trgt: HLA-DR10.
Irreversible Binding Studies of sL1 and HLA-DR10 The general strategy for the development of an irreversibly binding Lym1 sFv (sL1) is outlined in FIG. 24. Lym-1 scFv (sL1) is genetically altered to incorporate a cysteine residue in various positions of one of the six CDRs. This free sulfhydryl is then activated with an alkylbromoacetate consisting of varied R-groups (see FIG. 34) which modify the reactivity of the covalent bond formation. The activated sL1 is then incubated with a crude mixture containing the target protein. The mixture is loaded on a SDS-PAGE gel and then investigated for the appearance of new, high molecular weight bands corresponding to the conjugation of the target protein and the sL1.
The general experimental protocol for the gel shift assays in the figures is as follows. An aliquot of concentrated P. pastoris expression media containing an sL1 mutant (8-10 μL, positive by anti-V5 stain for sL1 and dialyzed into 10 mM HEPES buffer pH 8.0), is incubated for 15 min with a chosen bromoacetate ester (e.g., nitrophenyl bromoacetate) at a concentration of 10 mM, to alkylate the Cys sidechain. […] Reducing SAB is added to each sample, followed by SDS-PAGE and western blotting.

avidin = avidin (Gallus gallus, UniProt P02701); details: cited from earlier work
avidin, sequence (P02701 25-152): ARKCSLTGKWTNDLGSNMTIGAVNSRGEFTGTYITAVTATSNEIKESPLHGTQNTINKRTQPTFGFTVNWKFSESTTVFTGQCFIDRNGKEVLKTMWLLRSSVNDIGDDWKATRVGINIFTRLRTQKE

Fab S95C = test: Covalent attachment of 111In-chelates to engineered Fab S95C (SDS-PAGE); assay type: binding; details: physiological pH and temperature, raw culture medium with 10% fetal calf serum
Experimental: FIG. 5 Conjugation of electrophilic ^111In-benzyl-EDTA derivatives with engineered Fab S95C. Phosphorimage of 10-20% SDS-PAGE gel of samples of complete culture media incubated with ^111In-labeled (A) CABE, (B) CpABE, (C) AABE, and (D) ABE. The radiolabeled light chains migrate near 25 Kd.
To investigate whether either the S95C or the N96C Fab would bind irreversibly to its target, ^111In-labeled chelates bearing electrophilic groups were incubated at physiological pH and temperature with raw tissue culture medium from the cells expressing these recombinant proteins. The culture medium contained 10% fetal calf serum, representative of typical biological media.
The samples were analyzed by denaturing gel electrophoresis (SDS-PAGE). Separation under reducing and denaturing conditions on SDS-PAGE separates the light chain from the heavy chain of each Fab, functionally destroying the antibody-binding pocket. Chelates bound to the Fab but not covalently linked will dissociate because the antibody-binding pocket is no longer folded. […] However, a chelate that not only bound to a Fab but also covalently linked will be attached to the Fab light chain and migrate with it on SDS-PAGE.

[1] = Whole-body clearance of indium-111 labeled electrophilic benzyl-EDTA derivatives; assay type: in vivo; details: indium-111 labeled chelate, BALB/c mice; for apparent half-life, whole-body clearance: after tail-vein injection
Experimental: FIG. 4 Whole-body clearance of indium-^111I labeled electrophilic derivatives of benzyl-EDTA from BALB/c mice after tail-vein injection. Here the objective was to find an electrophilic chelate that clears from the animal quickly when not captured by an engineered CHA255.
As reactive ligands, a small set of chelates bearing electrophilic para substituents (FIG. 3) that could react with cysteine were prepared. To be most useful, the electrophilic ligands should be stable in biological media so that they not react prematurely with common biological nucleophiles such as the cysteine on glutathione or in albumin (Geigy Scientific Tables Vol 3, C. Lentner, ed., Ciba-Geigy Ltd., Basel, Switz (1984)). The whole-body clearance of the radiolabeled chelates from mice was studied (FIG. 4 and Chmura, A. J., et al., J. Controlled Release 78:249-258 (2002)) to identify the electrophilic chelates that are unreactive in plasma in vitro, and which also quantitatively clear from live animals.

G54C mutant of 2D12.5 = test: Permanent binding to G54C, competitive 90Y-AABD attachment, SDS-PAGE; details: 37° C.
Experimental: FIG. 17 a) Scheme describing the permanent binding pair. b) Infinite binding is observed not only for ^90Y-AABD but also for ^111In-AABD, assayed by SDS-PAGE under denaturing conditions where only permanently bound complexes remain attached to the antibody.
FIG. 18 The G54C mutant was preincubated in triplicate with 10 μM AABD complexes of Y^3+, In^3+ or Cu^2+, a negative control N-(1-carbamoyl-2-(4-nitrophenyl)-ethyl)-acrylamide or N-(4-carboxymethylphenyl)-acrylamide, or just buffer, for 5 min, 20 min or 120 min at 37° C., pH 7.5. At the stated times ^90Y-AABD (1 μM) was added to each solution to compete for free G54C. Permanent binding was assayed by measuring band intensities after SDS-PAGE. a) Phosphorimage of gel. The fainter the bands, the greater the permanent binding by the unlabeled ligand. b) Crystal structures of Y-DOTA, In-DOTA-mono(p aminoanilide) (some atoms removed for clarity) and Cu-DOTA.
FIG. 19 a) Metal-AABD (10 μM) complexes were preincubated separately with aliquots of G54C for 5 min, followed by addition of 1 μM ^90Y-AABD, which competes for free G54C, and SDS-PAGE analysis. b) From quantitative phosphorimaging, the highest-affinity AABD complexes form permanent bonds with G54C with higher yields than more 3+weakly binding rare earth-AABD complexes whose ionic radii are slightly smaller (Lu Yb^3+) or larger (Ce^3+, La^3+) than ideal.
We were curious to see if an even weaker binder such as a copper chelate (KD˜10^−4 M for Cu-NBD) would bind irreversibly under ordinary conditions. We tested this by comparing the permanent binding of Y^3+-, In^3+-, and Cu^2+-AABD, using competitive ^90Y-AABD attachment as an indicator (FIG. 18). […] Weaker binding In-AABD blocks >50% of the sites after 5 min preincubation, and even more at later times. Very weakly binding Cu-AABD initially occupies only about 10% of the G54C sites under these conditions, but it has permanently attached to G54C in good yield after 2 hr, blocking>70% of the sites.

HLADR = test: Monovalent binding of Lym-1 single-chain antibody
Excerpt: This is a combination of (1) the behavior characteristic of a weak binder, which should permeate a tumor, and (2) the behavior of an extremely strong binder, which should ultimately lock onto its targets throughout the tumor. This combination of good penetration and permanent binding is a unique and revolutionary aspect of this technology.

O=C(O)CN1CCN(CC(=O)O)CCN(CC(=O)O)[C@@H](Cc2ccc([N+](=O)[O-])cc2)CN(CC(=O)O)CC1 [Y-(S)NBD, (S)-2-(4-nitrobenzyl)-DOTA]
Kd (antibody 2D12.5; 37° C., competitive immunoassay): 10 nM

nitrophenylbromoacetate
cross-linking of linker-activated T97C to HLA-DR10 (HLA-DR10): strong cross-linking

O=C(O)CCCC[C@@H]1SC[C@@H]2NC(=O)N[C@@H]21 [biotin]
KA (avidin): ~4e+09 M⁻¹

O=C(O)CN1CCN(CC(=O)O)CCN(CC(=O)O)[C@@H](Cc2ccc([N+](=O)[O-])cc2)CN(CC(=O)O)CC1 [La-(S)NBD, (S)-2-(4-nitrobenzyl)-DOTA]
ΔΔG relative to the Y-(S)NBD complex (antibody 2D12.5; competitive ELISA): 0.693 kcal/mol

O=C(O)CN(CC(=O)O)CC(Cc1ccc(NC(=O)CCl)cc1)N(CC(=O)O)CC(=O)O (centres unmarked) [CABE, chloroacetamidobenzyl-EDTA]
covalent attachment to Fab S95C light chain (Fab S95C): reacted equally well
whole-body clearance [1]: remain in the animals
apparent half-life, whole-body clearance [1]: 9 h

O=C(CBr)Oc1ccccc1 [phenylbromoacete]
cross-linking of linker-activated T97C to HLA-DR10 (HLA-DR10): mild reactivity

C=CC(=O)Nc1ccc(C[C@H]2CN(CC(=O)O)CCN(CC(=O)O)CCN(CC(=O)O)CCN2CC(=O)O)cc1 [Cu-AABD, (S)-2-(4-acrylamidobenzyl)-DOTA]
G54C sites initially occupied (G54C mutant of 2D12.5; 10 μM complex, pH 7.5): about 10%
G54C sites blocked from 90Y-AABD (G54C mutant of 2D12.5; 10 μM complex, after 2 hr, pH 7.5): > 70%

O=C(O)CN1CCN(CC(=O)O)CCN(CC(=O)O)CCN(CC(=O)O)CC1 [Y-DOTA, 1,4,7,10-tetraazacyclododecane-N,N′,N″,N′″-tetraacetic acid]
relative binding to 2D12.5 (antibody 2D12.5; competitive ELISA): lower than Y-(S)NBD but higher than Y-(R)NBD
relative binding to 2D12.5 (antibody 2D12.5; competitive ELISA, listed as Yttrium-DOTA): approximately in the middle

O=C(O)CN(CC(=O)O)CC(Cc1ccc(NC(=O)CBr)cc1)N(CC(=O)O)CC(=O)O (centres unmarked) [BABE, bromoacetamidobenzyl-EDTA]
whole-body clearance [1]: remain in the animals
apparent half-life, whole-body clearance [1]: 41 h

C=CC(=O)Nc1ccc(C[C@H]2CN(CC(=O)O)CCN(CC(=O)O)CCN(CC(=O)O)CCN2CC(=O)O)cc1 [In-AABD, (S)-2-(4-acrylamidobenzyl)-DOTA]
G54C sites blocked from 90Y-AABD (G54C mutant of 2D12.5; 10 μM complex, preincubation 5 min, pH 7.5): > 50%
permanent binding to G54C (G54C mutant of 2D12.5; pH 7.5, SDS-PAGE, listed as 111In-AABD): binds permanently

O=C(O)CN1CCN(CC(=O)O)CCN(CC(=O)O)[C@@H](Cc2ccc([N+](=O)[O-])cc2)CN(CC(=O)O)CC1 [Gd-(S)NBD, (S)-2-(4-nitrobenzyl)-DOTA]
relative binding to 2D12.5 (antibody 2D12.5; competitive ELISA): bind more tightly than the original Y^3+ complex

(S)-1-p chloropropionamidobenzyl-EDTA [CpABE]
covalent attachment to Fab S95C light chain (Fab S95C): not

B1: sL1: Lym-1 single-chain antibody, no cysteine mutation (protein)
scFv: RSQVQLKESGPGLVAPSQSLSITCTISGFSLTSYGVHWVRQPPGKGLEWLVVIWSDGSTTYNSALKSRLSISKDNSKSQVFLKMNSLQTDDTAIYYCASHYGSTLAFASWGHGTLVTVSAGGGGSGGGGSGGGGSDIQMTQSPASLSASVGETVTIICRASVNIYSYLAWYQQKQGKSPQLLVYNAKILAEGVPSRFSGSGSGTQFSLKINSLQPEDFGSYYCQHHYGTFTFGSGTKLEIKSRGPFEGKPIPNPLLGLDSTRTGHHHHHH
monovalent affinity (HLADR): too weak to measure confidently, but probably in the micromolar range
permanent attachment (cross-linking) to HLA-DR10β (HLA-DR10; sL1 construct treated with nitrophenyl ester, 37° C., 4 hr, western blot with HL-40): no reactive band appeared
